Our source for the GI50 and TGI values is PubChem BioAssay (NCI).

“And” between values parts separate entries of the source, which are not always exact repeats. Equal entries are not always repeated.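 Following 48 hours of exposure in 96-well plates, responses at five concentrations were used to interpolate endpoints linearly. The concentration for 50% growth inhibition is given as GI50. TGI marks complete inhibition of growth.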 Some results are limits rather than exact numbers.

Some test systems named below: NCI-H522 lung; NCI-H23 lung; 786-0 renal; NCI-H460 lung; MCF7 breast; HS 578T breast; OVCAR-4 ovarian; HL-60(TB) leukemia.
What all share (assay): DTP human tumour cell line panel, 48 h

Broadly, the GI50 is the concentration giving 50% growth inhibition. The term TGI denotes the concentration giving total growth inhibition. A low value points to more potent growth arrest. As to `Cc1cc(Cl)nc(N(CCCNc2ccnc3cc(Cl)ccc23)Cc2ccco2)n1`, the GI50 in the assay with NCI-H522 lung was 2.93 µM; with NCI-H23 lung, 1.98 µM; with 786-0 renal, 1.91 µM; in the assay on NCI-H460 lung, 2.04 µM; with MCF7 breast it was 1.81 µM; in the assay with HS 578T breast, 2.13 µM. Further, the GI50 in the assay with OVCAR-4 ovarian is 2.31 µM; with HL-60(TB) leukemia, 2.05 µM. Further, the TGI with NCI-H522 lung turned out to be 12.4 µM; in the assay with NCI-H23 lung, 7.68 µM; with 786-0 renal, 4.61 µM; in the assay on NCI-H460 lung, 6.2 µM; in the assay on MCF7 breast, 6.1 µM; in the assay with HS 578T breast it was 8.1 µM. For the same compound, the concentration for total growth inhibition (TGI) in the assay with OVCAR-4 ovarian is 12.2 µM; with HL-60(TB) leukemia it was 5.14 µM.
For the compound `CN(C)C(=S)SCC(=O)Nc1ccccc1`, the TGI with NCI-H522 lung, in the assay on NCI-H23 lung, in the assay on 786-0 renal, with NCI-H460 lung, in the assay with MCF7 breast and in the assay on HS 578T breast was over 100 µM in each case. For the same compound, the TGI in the assay on OVCAR-4 ovarian and in the assay with HL-60(TB) leukemia was over 100 µM each time.
In the case of `CCn1c(-c2nonc2N)nc2cncc(C(=O)N3CC[C@H](N)C3)c21`, the GI50 in the assay with NCI-H522 lung was over 9.56 µM; in the assay on NCI-H23 lung it was over 25 µM; in the assay with 786-0 renal it was over 20.4 µM; with NCI-H460 lung, 17.7 µM; with MCF7 breast, 14.1 µM; in the assay on HS 578T breast, 0.559 µM. Also, the GI50 in the assay with OVCAR-4 ovarian and in the assay on HL-60(TB) leukemia was over 25 µM in each case. Further, the TGI in the assay with NCI-H522 lung, in the assay with NCI-H23 lung, in the assay on 786-0 renal, in the assay with NCI-H460 lung, with MCF7 breast and in the assay on HS 578T breast was over 25 µM each time. Further, the TGI with OVCAR-4 ovarian and in the assay on HL-60(TB) leukemia was over 25 µM each time.
As to `CC[n+]1c(/C=C/C=C2\N(C)c3ccccc3C2(C)C)sc2ccccc21`, the GI50 in the assay on NCI-H522 lung is 3.8 µM; in the assay with NCI-H23 lung, 2.75 µM; in the assay on 786-0 renal it was 4.33 µM; with NCI-H460 lung, 4.5 µM; in the assay with MCF7 breast, 4.42 µM; in the assay with HS 578T breast it was 5.63 µM. Also, the GI50 in the assay on OVCAR-4 ovarian was 3.85 µM; in the assay with HL-60(TB) leukemia it was 5.16 µM. The TGI with NCI-H522 lung worked out at 9.03 µM; in the assay with NCI-H23 lung, 7.09 µM; in the assay with 786-0 renal, 8.38 µM; with NCI-H460 lung, 8.93 µM; in the assay with MCF7 breast it was 10.4 µM; with HS 578T breast, 20.1 µM. The TGI was 7.19 µM in the assay on OVCAR-4 ovarian and 12.1 µM with HL-60(TB) leukemia.
For the compound `Cn1cc(C2=C(c3cn(CCCCCSC(=N)N)c4ccccc34)C(=O)NC2=O)c2ccccc21`, the GI50 in the assay with NCI-H522 lung is 1.92 µM; in the assay on NCI-H23 lung it was 3.5 µM; in the assay with 786-0 renal it was 3.16 µM; with NCI-H460 lung it was 3.73 µM; with MCF7 breast it was 1.22 µM; with HS 578T breast, 2.24 µM. For the same compound, the GI50 is 3.16 µM in the assay on OVCAR-4 ovarian and 3.62 µM with HL-60(TB) leukemia. For the same compound, the TGI worked out at 5.59 µM in the assay on NCI-H522 lung; 7.56 µM in the assay on NCI-H23 lung; 7 µM with 786-0 renal; 7.75 µM in the assay on NCI-H460 lung; 4.97 µM in the assay on MCF7 breast; 11.1 µM with HS 578T breast. In addition, the TGI was found to be 7.32 µM with OVCAR-4 ovarian and 7.85 µM in the assay with HL-60(TB) leukemia.
For `O=C(Nc1nc2ccccc2s1)Nc1ccc([N+](=O)[O-])cc1Cl`, the GI50 with NCI-H522 lung was 2.74 µM; in the assay with NCI-H23 lung, 3.49 µM; in the assay on 786-0 renal, 1.92 µM; in the assay with NCI-H460 lung it was 2.42 µM; in the assay on MCF7 breast it was 2.55 µM; in the assay with HS 578T breast, 3.98 µM. In addition, the GI50 was 1.86 µM in the assay with OVCAR-4 ovarian and 15.2 µM in the assay on HL-60(TB) leukemia. The TGI in the assay with NCI-H522 lung is 10.2 µM; in the assay with NCI-H23 lung, 14.6 µM; with 786-0 renal, 3.7 µM; with NCI-H460 lung it was 6.81 µM; with MCF7 breast, 9.72 µM; in the assay with HS 578T breast, over 20.8 µM. The TGI was 3.68 µM in the assay with OVCAR-4 ovarian and over 54.7 µM with HL-60(TB) leukemia.
For `CC(=O)[O][Hg][c]1c(C)c(C)cc(C)c1C`, the concentration for 50% growth inhibition (GI50) in the assay with NCI-H522 lung was 0.194 µM; in the assay with NCI-H23 lung it was 1.03 µM; with 786-0 renal it was 1.76 µM; in the assay with NCI-H460 lung it was 0.739 µM; in the assay on MCF7 breast it was 0.873 µM; in the assay on HS 578T breast, 0.708 µM. Moreover, the GI50 in the assay on OVCAR-4 ovarian was 0.566 µM; in the assay on HL-60(TB) leukemia, 0.704 µM. Moreover, the TGI in the assay on NCI-H522 lung is 0.486 µM; in the assay on NCI-H23 lung, 3.32 µM; in the assay on 786-0 renal it was 3.28 µM; in the assay with NCI-H460 lung, 3.09 µM; in the assay on MCF7 breast, 2.86 µM; in the assay with HS 578T breast, 4.02 µM. Moreover, the figures for the concentration for total growth inhibition (TGI) in the assay on OVCAR-4 ovarian and with HL-60(TB) leukemia were 1.37 µM and 2.61 µM, respectively.
`Cc1cc([N+](=O)[O-])c2ccccc2[n+]1[O-]`: the GI50 in the assay with NCI-H522 lung was 0.739 µM and 0.303 µM; with NCI-H23 lung, 0.504 µM and 0.59 µM; with 786-0 renal, 0.158 µM and 0.258 µM; with NCI-H460 lung, 0.0307 µM and 0.0282 µM; with MCF7 breast it was 0.0489 µM and 0.0342 µM; in the assay with HS 578T breast it was 1.18 µM and 0.989 µM. In addition, the GI50 in the assay with OVCAR-4 ovarian was 2.72 µM and 2.61 µM; in the assay with HL-60(TB) leukemia, 2.11 µM and 1.65 µM. Moreover, the TGI in the assay on NCI-H522 lung is 2.42 µM and 0.959 µM; in the assay with NCI-H23 lung, 2.51 µM and 3.75 µM; with 786-0 renal it was 0.483 µM and 0.75 µM; with NCI-H460 lung, 0.129 µM and 0.109 µM; in the assay on MCF7 breast, 0.461 µM and 0.45 µM; in the assay on HS 578T breast it was 5.74 µM and 4.8 µM. Moreover, the TGI with OVCAR-4 ovarian was 10.1 µM and 9.13 µM; with HL-60(TB) leukemia, 6.48 µM and 5.51 µM.
Turning to `O=S(=O)(c1cnccc1N1CCN(CCO)CC1)N1CCCC1`, the TGI in the assay on NCI-H522 lung, with NCI-H23 lung, in the assay on 786-0 renal, in the assay with NCI-H460 lung, in the assay on MCF7 breast and in the assay on HS 578T breast was over 100 µM each time. The concentration for total growth inhibition (TGI) in the assay on OVCAR-4 ovarian and in the assay on HL-60(TB) leukemia was over 100 µM in each case.
With `C#CCOc1ccc2ncnc(Nc3ccc(NC(=O)C=C)cc3)c2c1`, the GI50 in the assay on NCI-H522 lung was 11.8 µM; in the assay on NCI-H23 lung it was over 100 µM; in the assay on 786-0 renal, 11.9 µM; in the assay with NCI-H460 lung, over 100 µM; in the assay on MCF7 breast, 2.98 µM; in the assay on HS 578T breast, 62 µM. For the same compound, the GI50 is over 100 µM with OVCAR-4 ovarian and 4.97 µM in the assay with HL-60(TB) leukemia. The TGI in the assay with NCI-H522 lung was 39.7 µM; with NCI-H23 lung, over 100 µM; in the assay on 786-0 renal, 38.2 µM; with NCI-H460 lung it was over 100 µM; in the assay with MCF7 breast, over 100 µM; in the assay on HS 578T breast, over 100 µM. For the same compound, the total growth inhibition concentration (TGI) with OVCAR-4 ovarian is over 100 µM; with HL-60(TB) leukemia it was 32.5 µM.
